This is an account of results in patent US8148407B2, “Compounds derived from 5-thioxylose and their use in therapeutics” (Laboratories Fournier S.A., priority 2005, dated 2012).

Broadly, the melting point is the temperature of the solid-liquid transition.

One data set relates to venous thrombosis. In words: Venous thrombosis test in the rat (Wessler venous stasis under hypercoagulation with factor Xa), oral administration. The class given is in vivo. The note with it: Rattus norvegicus, Wistar male rats, dose 6 mg/kg, thrombosis induced 2 h after administration, read-out: Oral activity: Activity (percentage inhibition of thrombus formation). The method, then:
The antithrombotic activity of the compounds according to the invention was studied in vivo in the rat by means of a test that reproduces a venous thrombosis. The venous thrombosis was induced according to the protocol described in Thromb. Haemost., 1992, 67(1), 176-179. The oral activity was studied according to the following operating protocol: The experiments are performed on non-fasted Wistar male rats weighing 250 to 280 g, divided into groups of 10 animals each. The test products are administered orally (tubage) dissolved or suspended in a solution of methyl cellulose (0.5% in water). […] To induce this thrombosis, a venous stasis is created under hypercoagulation according to the technique described by WESSLER (J. Applied Physiol., 1959, 943-946), the hypercoagulating agent used being a solution of activated factor X (Xa) having a concentration of 7.5 nKat/kg, supplied by Biogenic (Montpellier). The venous stasis is effected exactly 10 seconds after injection of the hypercoagulating agent. The activity of the test compounds was checked at different doses after they had been administered.

Turning to `Cc1cc(-c2cncc(O[C@@H]3SC[C@@H](O)[C@H](O)[C@H]3O)c2)ccc1F` [Example 59, 5-(4-fluoro-3-methylphenyl)-3-pyridinyl 5-thio-β-D-xylopyranoside], the melting point is 197 °C. In the data set with venous thrombosis, the inhibition in vivo at 6 mg/kg came out at 82%.
